The source of these data is ChEMBL document CHEMBL4052663, “Synthesis, antiviral evaluation and molecular docking studies of N4-aryl substituted/unsubstituted thiosemicarbazones derived from 1-indanones as potent anti-bovine viral diarrhea virus agents” (Bioorg Med Chem, 2017).

Calls of active or inactive are those of the source. The rule behind the calls is not given here. Some results are limits rather than exact numbers.

The nature of data set [1]: Cytotoxicity against bovine MDBK cells assessed as reduction in cell viability after 3 days by MTS/PES assay. The data set is classed as cell-based, Bos taurus. As to conditions: cattle.
Data set [2] has as its system Bovine viral diarrhea virus 1. The data set can be described thus: Ratio of EC50 for TSC-resistant Bovine viral diarrhea virus type 1 harboring NS5B N264D/A392E double mutant to EC50 for wild type Bovine viral diarrhea virus type 1 ATCC VR 534. It is filed as functional.
Data set [3] is described as follows: Antiviral activity against Bovine viral diarrhea virus 1-NADL infected in bovine MDBK cells assessed as reduction in plaque forming units after 72 hrs by crystal violet staining-based assay. The data set is classed as functional, cell-based. The following applies: Bovine viral diarrhea virus isolates and strains.
The test system of data set [4] is Bovine viral diarrhea virus 1. The data set can be described thus: Antiviral activity against wild type Bovine viral diarrhea virus 1 ATCC VR 534 infected in bovine MDBK cells assessed as reduction in virus induced cytopathic effect after 72 hrs by MTS/PES assay. It is filed as functional, cell-based. As to conditions: Bovine viral diarrhea virus isolates and strains, ATCC VR 534, MDBK. A general note: Cytopathic effects are the visible damage that an infection or toxin causes in cultured cells.

Data set [5] can be described thus: Selectivity index, ratio of CC50 for bovine MDBK cells to EC50 for Bovine viral diarrhea virus 1-NADL. The data set is classed as toxicity. As to conditions: cattle, read-out: Ratio CC50/EC50.
The test system of data set [6] is Bovine viral diarrhea virus 1. The data set can be described thus: Antiviral activity against TSC-resistant Bovine viral diarrhea virus 1 harboring NS5B N264D/A392E double mutant infected in bovine MDBK cells assessed as reduction in virus induced cytopathic effect after 72 hrs by MTS/PES assay. The data set is classed as functional, cell-based. The following applies: Bovine viral diarrhea virus isolates and strains.

The subject of data set [7] is Bovine viral diarrhea virus 1. The data set can be described thus: Antiviral activity against Bovine viral diarrhea virus 1 ATCC VR 534 infected in bovine MDBK cells assessed as reduction in virus induced cytopathic effect at 25 uM treated up to 4 hrs post infection measured after 48 hrs by MTS/PES assay. It is filed as functional, cell-based.

Regarding `COc1cc2c(cc1OC)/C(=N/NC(=S)Nc1ccc([N+](=O)[O-])cc1)CC2`, in data set [1], the 50% cytotoxic concentration (CC50) (in general, the concentration giving 50% cytotoxicity) at 72 h is above 10 µM. In data set [2], the “Ratio EC50” value was above 22. For the same compound, the values for the EC50 in data set [3], in data set [4] and in data set [6] were 0.7 µM, 0.45 µM and above 10 µM, respectively. Moreover, the selectivity ratio in data set [5] was above 14.3.

As to `NC(=O)c1ncn([C@@H]2O[C@H](CO)[C@@H](O)[C@H]2O)n1` [RIBAVIRIN], in data set [3], the 50% effective concentration (EC50) – broadly, the concentration giving half of the maximal effect – worked out at 7.7 µM. The selectivity ratio in data set [5] was determined as 7.1.

Turning to `S=C(N/N=C1\CCc2ccccc21)Nc1ccccc1`, the CC50 at 72 h in data set [1] is above 10 µM. Also, in data set [3], the EC50 was above 10 µM.

Take `NC(=S)N/N=C1\CCc2ccc([N+](=O)[O-])cc21`: the 50% cytotoxic concentration (CC50) at 72 h in data set [1] is above 25 µM. Moreover, the EC50 in data set [3] was determined as 2.7 µM; in data set [4], 1.04 µM; in data set [6] it was 1.07 µM. The inhibition result in data set [7] is “Active”. Also, the selectivity ratio in data set [5] was above 9.3.

Take `COc1cc2c(cc1OC)/C(=N/NC(=S)Nc1ccc(F)cc1)CC2`: the CC50 at 72 h in data set [1] is above 20 µM. Also, in data set [3], the EC50 worked out at 4 µM. For the same compound, the selectivity ratio in data set [5] was above 5.

Turning to `COc1ccc(NC(=S)N/N=C2\CCc3ccccc32)cc1`, in data set [1], the CC50 at 72 h was above 10 µM. The EC50 in data set [3] is above 10 µM.

Take `NC(=S)N/N=C1\CCc2cc(F)ccc21`: in data set [1], the CC50 at 72 h was found to be 41.9 µM. In addition, the EC50 in data set [3] was 9 µM. Further, the selectivity ratio in data set [5] was 5.4.

Take `S=C(N/N=C1\CCc2ccccc21)Nc1ccc(Cl)cc1`: in data set [1], the CC50 at 72 h was above 20 µM. Also, the EC50 in data set [3] is above 20 µM.

With `COc1ccc(NC(=S)N/N=C2\CCc3cc(OC)c(OC)cc32)cc1`, the CC50 at 72 h in data set [1] is above 20 µM. Besides, the EC50 in data set [3] came out at 12.9 µM. Also, the selectivity ratio in data set [5] is above 1.6.

In the case of `COc1cc2c(cc1OC)/C(=N/NC(=S)Nc1ccc(Cl)cc1)CC2`, in data set [1], the CC50 at 72 h was above 10 µM. The EC50 in data set [3] turned out to be 6.6 µM. Further, in data set [5], the selectivity ratio is above 1.5.

As for `Cc1cc(Br)c(C)c2c1/C(=N/NC(N)=S)CC2`, the CC50 at 72 h in data set [1] was above 100 µM. Further, the EC50 in data set [3] came out at 7.4 µM. Moreover, the selectivity ratio in data set [5] was above 13.5.

On to `Fc1ccc(NC(=S)N/N=C2\CCc3ccccc32)cc1`, for which the CC50 at 72 h in data set [1] is above 20 µM. Further, the EC50 in data set [3] was above 20 µM.

As to `Cc1ccc(NC(=S)N/N=C2\CCc3ccccc32)cc1`, in data set [1], the CC50 at 72 h is above 20 µM. Moreover, the EC50 in data set [3] was above 20 µM.

Take `COc1cc2c(cc1OC)/C(=N/NC(=S)Nc1ccccc1)CC2`: the CC50 at 72 h in data set [1] was above 10 µM. In addition, in data set [3], the EC50 came out at 8.4 µM. Besides, in data set [5], the selectivity ratio is above 1.2.

For `COc1cc2c(cc1OC)/C(=N/NC(N)=S)CC2`, the CC50 at 72 h in data set [1] is above 80 µM. Also, the “Ratio EC50” value in data set [2] was above 41. Further, the EC50 in data set [3] was 3.8 µM; in data set [4] it was 1.95 µM; in data set [6], above 80 µM. Moreover, the selectivity ratio in data set [5] is above 21.1.

Turning to `O=[N+]([O-])c1ccc(NC(=S)N/N=C2\CCc3ccccc32)cc1`, in data set [1], the CC50 at 72 h was above 10 µM. The concentration giving a half-maximal response (EC50) in data set [3] was above 10 µM.

Consider `COc1cc2c(cc1OC)/C(=N/NC(=S)Nc1ccc(C)cc1)CC2`, for which the CC50 at 72 h in data set [1] is above 20 µM. Further, the concentration giving a half-maximal response (EC50) in data set [3] was 8.8 µM. The selectivity ratio in data set [5] was above 2.3.

Take `NC(=S)N/N=C1\CCc2c1cccc2[N+](=O)[O-]`: the CC50 at 72 h in data set [1] is 84.6 µM. Moreover, in data set [3], the EC50 turned out to be 6.1 µM. Also, the selectivity ratio in data set [5] was 14.2.
